Measurements reported in US11415579B2, “Assay for measuring a rate of reaction between a target and a ligand candidate” (Imperial College Innovations Ltd., priority 2016, dated 2022).

What was measured:
Cdk2(N272C) (C177A) = molecular target: T1, Cdk2(N272C) (C177A) (Homo sapiens, UniProt P24941, C177A/N272C); experiment: Kinetic thiol consumption assay with Cdk2 mutant N272C; type: binding; parameters: key to Rate enhancement, Cdk2 N272: rate constant with Cdk2 ÷ rate constant with model thiol (fold); conditions: for Rate enhancement, Cdk2 N272: Cdk2 N272, additional mutation C177A; for Rate constant with Cdk2 N272C: Protein: Cdk2, cysteine position N272C, additional mutation C177A, in h^-1
T1 construct: poly-histidine; made in house; host or cells: E. coli
In short: (§1)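 5 μM thiol, degassed phosphate pH 8, 2% v/v immobilized TCEP beads; 1 h RT; fluorescence ex 380/em 470 nm; normalized vs DMSO/thiol-only; first-order exponential decay fit → rate constant; Cdk2 k / model-thiol k = rate enhancement per acrylamide.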

Cdk2(S276C) (C177A) = molecular target: T2, Cdk2(S276C) (C177A) (Homo sapiens, UniProt P24941, C177A/S276C); experiment: Kinetic thiol consumption assay with Cdk2 mutant S276C; type: binding; parameters: key to Rate enhancement, Cdk2 S276C: rate constant with Cdk2 ÷ rate constant with model thiol (fold); conditions: additional mutation C177A; for Rate constant with Cdk2 S276C: Protein: Cdk2, cysteine position S276C, in h^-1
T2 construct: poly-histidine; made in house; host or cells: E. coli
In short: as §1

Cdk2(T182C) (C177A) = molecular target: T3, Cdk2(T182C) (C177A) (Homo sapiens, UniProt P24941, C177A/T182C); experiment: Kinetic thiol consumption assay with Cdk2 mutant T182C; type: binding; parameters: key to Rate enhancement, Cdk2 T182C: rate constant with Cdk2 ÷ rate constant with model thiol (fold); conditions: additional mutation C177A; for Rate constant with Cdk2 T182C: Protein: Cdk2, cysteine position T182C, in h^-1
T3 construct: poly-histidine; made in house; host or cells: E. coli
In short: as §1

Cdk2(R122C) (C177A) = molecular target: T4, Cdk2(R122C) (C177A) (Homo sapiens, UniProt P24941, C177A/R122C); experiment: Kinetic thiol consumption assay with Cdk2 mutant R122C; type: binding; parameters: key to Rate enhancement, Cdk2 R122C: rate constant with Cdk2 ÷ rate constant with model thiol (fold); conditions: additional mutation C177A; for Rate constant with Cdk2 R122C: Protein: Cdk2, cysteine position R122C, in h-1
T4 construct: poly-histidine; made in house; host or cells: E. coli
In short: as §1

[1] = molecular target: T5, human cyclin-dependent kinase 2 (Cdk2) (Homo sapiens, UniProt P24941); experiment: Kinetic thiol consumption assay with wild type Cdk2 (C177); type: binding; parameters: key to Rate enhancement, Cdk2 WT: k(Cdk2) divided by k(model thiol); Rate constant with Cdk2 (k(Cdk2)): unit not given here; conditions: for Rate constant with Cdk2 (k(Cdk2)): 500 μM ligand, 5 μM thiol, phosphate buffer pH 8; for Rate enhancement, Cdk2 WT: no additional mutations; for Rate constant with Cdk2 WT: Protein: Cdk2, cysteine position WT, in h^-1; for k(Cdk2)/k(Cdk2_mut) rate enhancement: model thiol Cdk2[C177A, F80C, K278C]; for k(Cdk2)/k(GSH) rate enhancement: model thiol glutathione
T5 construct: poly-histidine; made in house; host or cells: E. coli
In short: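 Thiol 5 μM (Cdk2 or model thiol), degassed phosphate buffer pH 8, TCEP beads 2% v/v. Plates incubated 1 h RT, ex/em 380/470 nm. First-order decay fit → rate constant; ratio Cdk2/model thiol = rate enhancement.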

[2] = Kinetic thiol consumption assay with model thiol glutathione; type: physicochemical; parameters: Rate constant with glutathione (k(GSH)): unit not given here; conditions: for Rate constant with glutathione (k(GSH)): 500 μM ligand, 5 μM thiol, phosphate buffer pH 8; for Rate constant with Glutathione: Protein: Glutathione, cysteine position NA, in h-1
In short: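 GSH 5 μM, degassed phosphate buffer pH 8, TCEP beads 2% v/v; acrylamide added; RT, 1 h; fluorescence ex/em 380/470 nm; normalized to DMSO/thiol control; k from first-order exponential decay fit.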

Cdk2[C177A, F80C, K278C] = molecular target: T6, Cdk2[C177A, F80C, K278C] (Homo sapiens, UniProt P24941, C177A/F80C/K278C); experiment: Kinetic thiol consumption assay with mutant Cdk2 as model thiol; type: binding; parameters: unit not given here; conditions: 500 μM ligand, 5 μM thiol, phosphate buffer pH 8
T6 construct: poly-histidine; made in house; host or cells: E. coli
In short: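 Model thiol: His-tagged human Cdk2 C177A/F80C/K278C (two engineered surface cysteines), E. coli-expressed, 5 μM in degassed phosphate buffer pH 8 with immobilized TCEP beads (2% v/v). Fluorescence (ex/em 380/470 nm) followed over time at room temperature, normalized to DMSO/thiol control. First-order decay fit gives rate constants.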

Cdk2(H71C) (C177A) = molecular target: T7, Cdk2(H71C) (C177A) (Homo sapiens, UniProt P24941, C177A/H71C); experiment: Kinetic thiol consumption assay with Cdk2 mutant H71C; type: binding; parameters: key to Rate enhancement, Cdk2 H71C: rate constant with Cdk2 ÷ rate constant with model thiol (fold); conditions: additional mutation C177A; for Rate constant with Cdk2 H71C: Protein: Cdk2, cysteine position H71C, in h^-1
T7 construct: poly-histidine; made in house; host or cells: E. coli
In short: as §1

Cdk2(S181C) (C177A) = molecular target: T8, Cdk2(S181C) (C177A) (Homo sapiens, UniProt P24941, C177A/S181C); experiment: Kinetic thiol consumption assay with Cdk2 mutant S181C; type: binding; parameters: key to Rate enhancement, Cdk2 S181C: rate constant with Cdk2 ÷ rate constant with model thiol (fold); conditions: additional mutation C177A; for Rate constant with Cdk2 S181C: Protein: Cdk2, cysteine position S181C, in h^-1
T8 construct: poly-histidine; made in house; host or cells: E. coli
In short: as §1

Cdk2(C177A, F80C) = molecular target: T9, Cdk2(C177A, F80C) (Homo sapiens, UniProt P24941, C177A/F80C); experiment: Kinetic thiol consumption assay with Cdk2 mutant F80C, incl. kobs versus concentration (Kd, k2); type: binding; parameters: key to Rate enhancement, Cdk2 F80C: Cdk2 rate constant divided by model-thiol rate constant; conditions: additional mutation C177A; for Rate constant with Cdk2 F80C: Protein: Cdk2, cysteine position F80C, in h^-1
T9 construct: poly-histidine; made in house; host or cells: E. coli
In short: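 His-tagged Cdk2(C177A/F80C) from E. coli or model thiol, 5 μM in degassed phosphate buffer pH 8 with TCEP beads, reacted with acrylamide ligands; fluorescence (ex/em 380/470 nm) normalized to DMSO control and fitted to first-order decay for kobs. Kd and k2 obtained from hyperbolic fit of kobs versus ligand concentration.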

SMILES | Rate enhancement, Cdk2 N272 (Cdk2(N272C) (C177A)) | Rate constant with Cdk2 N272C (Cdk2(N272C) (C177A)) | Rate enhancement, Cdk2 S276C (Cdk2(S276C) (C177A)) | Rate constant with Cdk2 S276C (Cdk2(S276C) (C177A)) | Rate enhancement, Cdk2 T182C (Cdk2(T182C) (C177A)) | Rate constant with Cdk2 T182C (Cdk2(T182C) (C177A)) | Rate enhancement, Cdk2 R122C (Cdk2(R122C) (C177A)) | Rate constant with Cdk2 (k(Cdk2)) [1] | Rate enhancement, Cdk2 WT [1] | Rate constant with Cdk2 WT [1] | k(Cdk2)/k(Cdk2_mut) rate enhancement [1] | k(Cdk2)/k(GSH) rate enhancement [1] | Rate constant with glutathione (k(GSH)) [2] | Rate constant with Glutathione [2] | Rate constant with Cdk2[C177A, F80C, K278C] (k(Cdk2_mut)) (Cdk2[C177A, F80C, K278C]) | Rate enhancement, Cdk2 H71C (Cdk2(H71C) (C177A)) | Rate enhancement, Cdk2 S181C (Cdk2(S181C) (C177A)) | Rate constant with Cdk2 S181C (Cdk2(S181C) (C177A)) | Rate enhancement, Cdk2 F80C (Cdk2(C177A, F80C)) | Rate constant with Cdk2 F80C (Cdk2(C177A, F80C)) | also measured
C=CC(=O)N1CCN(c2cccc3cccnc23)CC1 [EL-1156] | 0.3397 | 0.005976 | 1.35 | 0.02375 | 4.097 | 0.07206 | 0.6879 | 0.01873 | 1.065 | 0.01873 | 0.8683 | 1.062 | 0.01763 | 0.01759 | 0.02157 | 0.3885 | 1 | 0.01759 | 1.015 | 0.01786 | Rate constant with Cdk2 R122C (Cdk2(R122C) (C177A)): 0.0121; Rate constant with Cdk2 H71C (Cdk2(H71C) (C177A)): 0.006834
C=CC(=O)N1CCN(S(C)(=O)=O)CC1c1ccccc1 (centres unmarked) [EL-1160] | 0.5689 | 0.0163 | 0.7682 | 0.02201 | 2 | 0.05729 | 0.2711 | 0.01181 | 0.4122 | 0.01181 | 2.854 | 0.4129 | 0.0286 | 0.02865 | 0.00414 | 0.9714 | 0.4684 | 0.01342 | 0.4705 | 0.01348 | Rate constant with Cdk2 R122C (Cdk2(R122C) (C177A)): 0.007767; Rate constant with Cdk2 H71C (Cdk2(H71C) (C177A)): 0.02783
C=CC(=O)NC(Cc1ccccc1)C(O)CF (centres unmarked) [EL-1164] | 0.09396 | 0.0007233 | 2.9904E−12 | 2.302E−14 | 0.1829 | 0.001408 | 0 | 0.00239 | 0.4757 | 0.003662 | 3.262 | 0.4934 | 0.00485 | 0.007698 | 0.00073 | 0 | 0.9819 | 0.007559 | 0.2794 | 0.002151 | 
C=CC(=O)N1CCCN2C(=O)CCC12c1ccc(OC)cc1 (centres unmarked) [EL-1168] | 0.6555 | 0.008745 | 0.6022 | 0.008034 | 2.927 | 0.03904 | 0.3022 | 0.00974 | 0.7298 | 0.009736 | 5.551 | 0.7249 | 0.01343 | 0.01334 | 0.00175 | 0.8583 | 1.741 | 0.02323 | 0.3123 | 0.004166 | Rate constant with Cdk2 R122C (Cdk2(R122C) (C177A)): 0.004032; Rate constant with Cdk2 H71C (Cdk2(H71C) (C177A)): 0.01145
C=CC(=O)NCCc1c[nH]c2ccccc12 [EL-1174] | 0 |  | 0.716 | 0.003008 | 1.377 | 0.005783 | 0.532 | 0.0009 | 0.3449 | 0.001449 | 0.131 | 0.3555 | 0.00253 | 0.004201 | 0.00688 | 0.8572 | 0.5058 | 0.002125 | 3.249 | 0.01365 | Rate constant with Cdk2 R122C (Cdk2(R122C) (C177A)): 0.002235; Rate constant with Cdk2 H71C (Cdk2(H71C) (C177A)): 0.003601
